In patent US20240082406A1, “BENZOHETEROCYCLE SUBSTITUTED TETRAHYDROISOQUINOLINE COMPOUND” (SHANGHAI JEMINCARE PHARMACEUTICAL CO., LTD, priority 2020, published 2024):

Experiments:
[1] = molecular target: T1, NHE3 (UniProt P48764); assay: Cell-based NHE3 activity under transient conditions (BCECF-AM intracellular pH, FLIPR); set-up: species or system Rat or Human; conditions: embodiment compounds, opossum kidney cells expressing NHE3, read-out: Cell-based NHE3 inhibition IC50 (uM) under transient conditions
T1 sequence (P48764 1-834): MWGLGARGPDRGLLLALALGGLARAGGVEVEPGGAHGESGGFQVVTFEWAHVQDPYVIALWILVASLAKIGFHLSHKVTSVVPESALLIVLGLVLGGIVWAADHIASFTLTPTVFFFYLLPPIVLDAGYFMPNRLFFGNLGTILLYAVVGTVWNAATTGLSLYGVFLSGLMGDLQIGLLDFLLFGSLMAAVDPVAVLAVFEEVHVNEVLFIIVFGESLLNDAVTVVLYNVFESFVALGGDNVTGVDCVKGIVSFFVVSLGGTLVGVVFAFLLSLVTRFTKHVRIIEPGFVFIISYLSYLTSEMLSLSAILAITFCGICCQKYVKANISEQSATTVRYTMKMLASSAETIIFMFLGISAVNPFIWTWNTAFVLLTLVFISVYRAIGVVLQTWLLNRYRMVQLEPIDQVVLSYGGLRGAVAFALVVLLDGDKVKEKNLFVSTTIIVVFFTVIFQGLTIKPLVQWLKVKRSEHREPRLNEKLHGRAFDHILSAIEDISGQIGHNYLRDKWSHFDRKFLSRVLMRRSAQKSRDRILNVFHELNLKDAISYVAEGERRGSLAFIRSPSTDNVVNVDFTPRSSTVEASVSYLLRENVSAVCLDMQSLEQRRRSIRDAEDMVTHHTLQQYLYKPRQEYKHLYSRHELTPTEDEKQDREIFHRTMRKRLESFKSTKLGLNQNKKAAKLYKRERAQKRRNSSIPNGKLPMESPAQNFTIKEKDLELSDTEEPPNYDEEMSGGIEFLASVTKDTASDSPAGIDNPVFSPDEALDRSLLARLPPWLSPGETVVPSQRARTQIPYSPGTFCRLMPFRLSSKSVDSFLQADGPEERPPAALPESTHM
From the text: (§1) Opossum kidney (OK) cells were obtained from ATCC and cultured and expanded according to its instructions. OK monoclonal stable cell lines expressing the Rat NHE3 (Gene Bank registration number: M85300) protein and OK monoclonal stable cell lines expressing the Human NHE3 (Gene Bank registration number: NM_004174.1) protein were constructed by lentivirus infection.
The general procedure of the cell-based NHE3 activity experiments under transient conditions (transient inhibition) was based on an adaptation method of the pH-sensitive dye method originally reported by Tisen (Proc. Natl. Acad. Sci. USA) (1984) 81(23):7436-7440) to measure rat NHE3-mediated Na+-dependent reverse H+ transport, and was optimized according to the instructions “Measuring Intracellular pH With the FLIPR and FLIPR 384 Fluorometric Imaging Plate Reader Systems” published by Molecular Devices. The specific method was: Rat NHE3 OK monoclonal cells or Human NHE3 OK monoclonal cells were inoculated into 384-well plates and grew overnight. The medium was aspirated from the wells and the cells were washed twice with FLIPR buffer (Hank's BSS 1×, 20 mM HEPES, 1% BSA) followed by incubation with FLIPR buffer (Hank's BSS 1×, 20 mM HEPES, 1% BSA) containing […] BCECF-AM (Invitrogen) for 45 min at room temperature. Subsequently, […] of 200 mM NH4Cl-HEPES buffer (Hank's BSS 1×, 20 mM HEPES, 200 mM NH4Cl) was added and the cells were incubated for 15-20 minutes at room temperature. Cells were washed twice with 20 mM NH4Cl-HEPES buffer (Hank's BSS 1×, 20 mM HEPES, 20 mM NH4Cl). NHE3-mediated pH sensitization in cells was normalized by addition of containing 0.4 mM amiloride (EIPA) and […] test compound or Na-HEPES buffer (100 mM NaCl, 50 mM HEPES, 10 mM glucose, 5 mM KCl, 2 mM CaCl2), 1 mM MgCl2, pH 7.4) and monitoring of BCECF-AM fluorescence at λem 535 nm excitated by λex 440 nm and λex 490 nm respectively. Ratio=fluorescence value (λex 490 nm)/fluorescence value (λex 440 nm) was set, the average value of the Ratio difference between the end time and the start time between the duplicate wells was calculated, the average value and the concentration value of the compound were drawn, and Graphpad Prism software was used to estimate IC50 value.

[2] = molecular target: T1, NHE3; assay: Cell-based NHE3 activity under persistent conditions (60 min pre-incubation, compound removed); set-up: species or system Rat or Human; conditions: opossum kidney cells expressing NHE3, read-out: Cell-based NHE3 inhibition IC50 (uM) under persistent conditions
From the text: as §1
The general procedure of the cell-based NHE3 activity assay under persistent conditions (persistent inhibition) was: Rat NHE3 OK monoclonal cells or Human NHE3 OK monoclonal cells were inoculated into 384-well plates and grew overnight. The medium was aspirated from the wells and the cells were washed twice with FLIPR buffer (Hank's BSS 1×, 20 mM HEPES, 1% BSA) followed by the addition of Na-HEPES buffer containing […] test compound (100 mM NaCl, 50 mM HEPES, 10 mM glucose, 5 mM KCl, 2 mM CaCl2, 1 mM MgCl2, pH 7.4) and incubated for 60 minutes at room temperature. The compounds were aspirated from the wells and incubated with FLIPR buffer (Hank's BSS 1×, 20 mM HEPES, 1% BSA) containing […] BCECF-AM (Invitrogen) for 45 minutes at room temperature. Subsequently, […] of 200 mM NH4Cl-HEPES buffer (Hank's BSS 1×, 20 mM HEPES, 200 mM NH4Cl) was added and incubated for 15-20 minutes at room temperature. The cells were washed twice with 20 mM NH4Cl-HEPES buffer (Hank's BSS 1×, 20 mM HEPES, 20 mM […]). […] Ratio=fluorescence value (λex 490 nm)/fluorescence value (λex 440 nm) was set, the average value of the Ratio difference between the end time and the start time between the duplicate wells was calculated, the average value and the concentration value of the compound were drawn, and the dose-response-inhibition (four parameters) equation was used to estimate EC50 value by GraphpadPrism.

| Compound | IC50 [1] | IC50 [2] |
| --- | --- | --- |
| CN1Cc2c(Cl)cc(Cl)cc2C(c2ccc3c(c2)C(=O)N(CCOCCOCCOCCNC(=O)CCC(N)(CCC(=O)NCCOCCOCCOCCN2Cc4ccc(C5CN(C)Cc6c(Cl)cc(Cl)cc65)cc4C2=O)CCC(=O)NCCOCCOCCOCCN2Cc4ccc(C5CN(C)Cc6c(Cl)cc(Cl)cc65)cc4C2=O)C3)C1 (stereo not drawn) [Embodiment I3] | 0.19 µM | 0.13 µM |
| CN1Cc2c(Cl)cc(Cl)cc2C(c2ccc3c(c2)C(=O)N(CCOCCOCCOCCNC(=O)COCC(=O)NCCOCCOCCOCCN2Cc4ccc(C5CN(C)Cc6c(Cl)cc(Cl)cc65)cc4C2=O)C3)C1 (stereo not drawn) [Embodiment J1] | 0.43 µM | 0.03 µM |
| CN1Cc2c(Cl)cc(Cl)cc2C(c2ccc3c(c2)C(=O)N(CCOCCOCCOCCNC(=O)[C@H](O)[C@@H](O)C(=O)NCCOCCOCCOCCN2Cc4ccc(C5CN(C)Cc6c(Cl)cc(Cl)cc65)cc4C2=O)C3)C1 (stereo partly drawn) [Embodiment J2] | 0.32 µM | 0.05 µM |
| CN1Cc2c(Cl)cc(Cl)cc2C(c2ccc3c(c2)C(=O)N(CCOCCOCCOCCNC(=O)[C@@H](O)[C@@H](O)C(=O)NCCOCCOCCOCCN2Cc4ccc(C5CN(C)Cc6c(Cl)cc(Cl)cc65)cc4C2=O)C3)C1 (stereo partly drawn) [Embodiment J3] | 0.26 µM | 0.08 µM |
| CN1Cc2c(Cl)cc(Cl)cc2C(c2ccc3c(c2)C(=O)N(CCOCCOCCNC(=O)[C@H](O)[C@H](O)[C@@H](O)[C@@H](O)C(=O)NCCOCCOCCN2Cc4ccc(C5CN(C)Cc6c(Cl)cc(Cl)cc65)cc4C2=O)C3)C1 (stereo partly drawn) [Embodiment J4] | 0.25 µM | 0.05 µM |
| CN1Cc2c(Cl)cc(Cl)cc2[C@H](c2cccc(S(=O)(=O)NCCOCCOCCNC(=O)NCCCCNC(=O)NCCOCCOCCNS(=O)(=O)c3cccc([C@@H]4CN(C)Cc5c(Cl)cc(Cl)cc54)c3)c2)C1 [Tenapanor, reference compound] | 0.74 µM | 0.56 µM |
